# Assay results as given in patent publication US20260224652A1, “ENRICHED PELARGONIUM GRAVEOLENS EXTRACTS FOR THE TREATMENT OF TRAUMATIC BRAIN INJURIES” (THE STATE OF ISRAEL, MINISTRY OF AGRICULTURE & RURAL …, priority 2023, published 2026).
# Where a name gives a salt, the structure may show the parent alone.
# Legend:
# [1] = test system: mice subjected to a closed head injury (CHI); assay: Barnes maze test (learning) after CHI; assay type: in vivo; settings: acquisition days 1-4, two weeks after CHI; oral gavage, 9 daily doses; Pg oil 100 mg/kg, citronellol 25 mg/kg, citronellyl formate 80 mg/kg
# Procedure: (§1) Experimental CHI was induced by using a modified weight drop device (Chen et al; Flierl et al). Briefly, under 3% isoflurane anesthesia and supplementary oxygen (confirmed by the loss of response to pinch of paw), a midline longitudinal incision is performed, and the skull is exposed. A Teflon tipped cone (2 mm diameter) is placed upside down 2 mm lateral to the midline and 2 mm posterior to the bregma in the mid-coronal plane. The head is held in place and a 95 g weight is allowed to free-fall on the cone from a pre-established height, resulting in focal injury to the left hemisphere. The height of the free-fall weight is determined by the weight of the mouse and the desired CHI severity. In the present experiments, a free-fall of 6.5-7 cm was selected to induce a moderate neurological severity injury (NSS of 6-7 at 1 hr post injury). Sham mice were anesthetized and subjected to the same skin incision as described above, with no further trauma. […] At 1 h after CHI, the NSS is evaluated. […] Animals displaying apnea were monitored carefully and returned to their cage when adequate oxygenation was restored. • a. […]
# The BM test is based on the instinct of the mouse to hide when exposed to environmental disturbances and is used to test spatial learning and memory. […] For the probe trial, the latency to reaching the escape box first is recorded. […]
# [2] = test system: mice subjected to a closed head injury (CHI); assay: Y maze spatial memory test after CHI; assay type: in vivo; settings: 24 days after trauma; oral gavage, 9 daily doses; Pg oil 100 mg/kg, citronellol 25 mg/kg, citronellyl formate 80 mg/kg
# Procedure: as §1, with “severity.” for “severity. In the present experiments, a free-fall of 6.5-7 cm was selected to induce a moderate neurological severity injury (NSS of 6-7 at 1 hr post injury). Sham mice were anesthetized and subjected to the same skin incision as described above, with no further trauma.”
# At 24 days post CHI, the Y maze spatial memory test was preformed to evaluate short term spatial memory. […] Short-term memory is reflected by the Preference index (PI), calculated as the amount of time spent in the new arm relative to the total amount of time spent in the “other” plus “new” arms. […]
# The data was further analyzed by dividing the mice's performance into two groups: mice with (+) positive y-axis values (which represent a good spatial memory) and mice with negative (−) y-axis values (which represent spatial memory loss).
# [3] = test system: mice subjected to a closed head injury (CHI); assay: Novel Object Recognition (NOR) test after CHI; assay type: in vivo; settings: 22 days after trauma; 4 hours after object replaced; oral gavage, 9 daily doses; Pg oil 100 mg/kg, citronellol 25 mg/kg, citronellyl formate 80 mg/kg
# Procedure: as §1, with “severity.” for “severity. In the present experiments, a free-fall of 6.5-7 cm was selected to induce a moderate neurological severity injury (NSS of 6-7 at 1 hr post injury). Sham mice were anesthetized and subjected to the same skin incision as described above, with no further trauma.”
# The novel object recognition (NOR test) was performed to assess short term memory 22d after trauma. […] The cumulative time spent by each mouse exploring the objects was recorded manually for a total of 5 min. […] Exploration of the object was determined as such when the mouse's nose was pointed in the direction of the object and the mouse was actively investigating it, directly touching it or being close to it. […] The time spent exploring each of the objects (novel or familiar) was recorded and calculated as the percentage of time from a total of 5 min. […]
# [4] = test system: mice subjected to a closed head injury (CHI); assay: Neurological Severity Score (NSS) after closed head injury; assay type: in vivo; settings: oral gavage, 9 daily doses over 2 weeks starting 24 h after CHI; Pg oil 100 mg/kg, citronellol 25 mg/kg, citronellyl formate 80 mg/kg; from day 7 up to 30 days after trauma
# Procedure: as §1, with “injury).” for “injury). Sham mice were anesthetized and subjected to the same skin incision as described above, with no further trauma.”
# The functional status of the mice was evaluated according to the neurobehavioral score, known as the Neurological Severity Score (NSS), which consists of several tests that assess reflexes, alertness, coordination, and motor abilities. […]
# The neurological severity score (NSS) was determined for each of the experimental groups of mice (details as described above) starting 1 hour after the trauma.
# acetyl choline esterase = acetyl choline esterase (Homo sapiens, UniProt P22303); settings: in vitro; cited from earlier work
# Sequence of acetyl choline esterase (P22303 32-614): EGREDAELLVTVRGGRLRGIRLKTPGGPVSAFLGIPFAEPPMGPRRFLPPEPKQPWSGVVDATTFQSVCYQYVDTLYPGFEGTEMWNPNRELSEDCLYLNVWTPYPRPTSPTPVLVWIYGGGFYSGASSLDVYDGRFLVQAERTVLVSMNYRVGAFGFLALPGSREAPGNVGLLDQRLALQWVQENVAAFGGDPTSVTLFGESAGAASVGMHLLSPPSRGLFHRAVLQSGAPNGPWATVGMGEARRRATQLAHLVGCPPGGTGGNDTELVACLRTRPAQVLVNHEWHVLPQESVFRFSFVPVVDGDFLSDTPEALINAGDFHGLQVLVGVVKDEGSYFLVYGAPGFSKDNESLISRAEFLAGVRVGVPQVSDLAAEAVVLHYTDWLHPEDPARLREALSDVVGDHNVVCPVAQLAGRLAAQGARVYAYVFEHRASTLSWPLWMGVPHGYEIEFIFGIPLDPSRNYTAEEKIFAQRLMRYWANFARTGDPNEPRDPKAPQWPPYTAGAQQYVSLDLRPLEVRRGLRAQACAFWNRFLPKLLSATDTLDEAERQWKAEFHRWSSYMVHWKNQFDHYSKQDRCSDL
Compound,Barnes maze learning performance (latency to escape box) [1],percent of mice that preferred the novel arm over the familiar arm (Y maze) [2],preference/recognition of a novel object versus a familiar one (NOR) [3],reduction in the neurological severity score (NSS) compared with vehicle treated CHI mice [4],inhibition of acetyl choline esterase activity (acetyl choline esterase)
CC(C)=CCCC(C)CCOC=O (stereo not drawn) [citronellyl formate],"significant improvement, but only on day 2",About 54%,not able to prefer/recognize a novel object,significant reduction,–
CC(C)=CCC[C@H](C)CCO [(S) (−) citronellol],–,–,–,–,inhibits in vitro the activity of the enzyme acetyl choline esterase
CC(C)=CCCC(C)CCO (stereo not drawn) [citronellol],"significant improvement, but only on day 2",About 54%,not able to prefer/recognize a novel object,significant reduction,–
